Active and inactive are the calls of the source. Cut-off read from the data, not from the text of the source: actives have a measured IC50 and inactives only a lower limit.

For the assay, the target named is Envelope glycoprotein gp160 (Human immunodeficiency virus 1, UniProt Q6QLK5). The experiment in a line: cell-free HIV fusion peptide-binding blockers – biochemical, uHTS, fluorescence dequenching, […] (AID 1986).
Envelope glycoprotein gp160, sequence (Q6QLK5 whole entry, the tested form may be a part): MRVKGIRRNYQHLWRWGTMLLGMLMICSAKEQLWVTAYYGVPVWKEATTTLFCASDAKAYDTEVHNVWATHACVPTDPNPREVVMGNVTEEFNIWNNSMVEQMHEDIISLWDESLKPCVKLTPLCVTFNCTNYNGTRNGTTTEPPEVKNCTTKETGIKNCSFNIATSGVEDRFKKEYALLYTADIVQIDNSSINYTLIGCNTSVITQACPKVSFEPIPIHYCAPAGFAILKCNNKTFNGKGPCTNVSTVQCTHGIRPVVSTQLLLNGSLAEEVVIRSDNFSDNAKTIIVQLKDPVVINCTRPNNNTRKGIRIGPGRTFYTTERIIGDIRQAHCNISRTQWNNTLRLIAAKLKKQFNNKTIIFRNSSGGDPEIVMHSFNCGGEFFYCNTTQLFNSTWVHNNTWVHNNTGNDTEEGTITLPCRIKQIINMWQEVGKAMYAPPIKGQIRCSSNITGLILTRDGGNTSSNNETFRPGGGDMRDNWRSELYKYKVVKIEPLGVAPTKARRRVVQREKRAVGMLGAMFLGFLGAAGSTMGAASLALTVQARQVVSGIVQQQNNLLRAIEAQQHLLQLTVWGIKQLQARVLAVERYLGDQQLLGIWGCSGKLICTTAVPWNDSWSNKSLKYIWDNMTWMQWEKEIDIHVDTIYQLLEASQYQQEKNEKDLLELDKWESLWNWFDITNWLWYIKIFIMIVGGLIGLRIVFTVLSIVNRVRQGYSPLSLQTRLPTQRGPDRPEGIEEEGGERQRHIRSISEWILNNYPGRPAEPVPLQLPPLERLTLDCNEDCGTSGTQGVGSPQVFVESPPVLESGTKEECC
Regarding `Cc1cc(/C=C2\C(=N)N3N=C(S(C)(=O)=O)SC3=NC2=O)c(C)n1Cc1ccccc1`, the 50% inhibitory concentration (IC50) (in general, the point on the concentration scale where inhibition reaches its midpoint) is 26.2 µM (active). The result for `Cc1c(CC(=O)O)c(=O)oc2c(C)c3occ(-c4ccc(Br)cc4)c3cc12` reads 27.6 µM (active). The result for `O=C(O)CN1C(=O)/C(=C\c2cc(Br)ccc2OCc2ccc([N+](=O)[O-])cc2)SC1=S` reads 10.1 µM (active); that for `CC(C)(C)c1cc(-c2csc(Nc3ccccc3)[n+]2Cc2ccc(C(=O)O)cc2)cc(C(C)(C)C)c1O`, 12.9 µM (active).

Source of the values: ChEMBL document CHEMBL1201862, “PubChem BioAssay data set” (2004).
